Reference: US5866583A, “Substituted 2,4-diaminopyrimidines” (Hoffmann-La Roche Inc., priority 1996, dated 1999)

What was measured:
[1] = target: T1, purified DHFR of the opportunistic pathogen P. carinii (Pneumocystis carinii, UniProt P16184); assay: biochemical; conditions: IC50 determined by means of a graph
T1 sequence (P16184 1-206): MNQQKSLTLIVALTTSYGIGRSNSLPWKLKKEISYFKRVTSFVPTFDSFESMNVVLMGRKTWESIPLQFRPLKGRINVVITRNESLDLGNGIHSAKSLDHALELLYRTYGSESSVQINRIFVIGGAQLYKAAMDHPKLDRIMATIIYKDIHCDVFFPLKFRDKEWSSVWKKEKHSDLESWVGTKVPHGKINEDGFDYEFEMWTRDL
Excerpt: (§1) The inhibition of this enzyme was taken as a measurement of the antibacterial activity.

[2] = target: purified DHFR of the reference strain S. aureus ATCC 25923 (Staphylococcus aureus, UniProt P0A017); assay: Inhibition of purified DHFR of reference strain S. aureus ATCC 25923; assay type: biochemical
Excerpt: as §1

[3] = target: purified DHFR of the multiresistant strain S. aureus 157/4696 (Staphylococcus aureus, UniProt P13955); assay: Inhibition of purified DHFR of multiresistant strain S. aureus 157/4696; assay type: biochemical
Excerpt: as §1

COc1cc(Cc2cnc(N)nc2N)cc(/C=C/C(=O)N2CCc3ccccc3C2c2ccccn2)c1OC (racemic) [Example 3, (E)-(RS)-3-[5-(2,4-Diamino-pyrimidin-5-ylmethyl)-2,3-dimethoxy-phenyl]-1-(1-pyridin-2-yl-3,4-dihydro-1H-isoquinolin-2-yl)-propenone]
IC50 [1]: 17000 nM | IC50 [2]: 9 nM | IC50 [3]: 9.5 nM

COc1ccc2c(c1)C(c1ccccn1)N(C(=O)/C=C/c1cc(Cc3cnc(N)nc3N)cc(OC)c1OC)CC2 (racemic) [Example 8, (E)-(RS)-3-[5-(2,4-Diamino-pyrimidin-5-ylmethyl)-2,3-dimethoxy-phenyl]-1-(7-methoxy-1-pyridin-2-yl-3,4-dihydro-1H-isoquinolin-2-yl)-propenone]
IC50 [1]: 5000 nM | IC50 [2]: 5 nM | IC50 [3]: 9 nM

COc1cc(Cc2cnc(N)nc2N)cc(/C=C/C(=O)N2CCc3ccccc3C2c2ccc(C)cc2)c1OC (racemic) [Example 16, (E)-(RS)-3-[5-(2,4-Diamino-pyrimidin-5-ylmethyl)-2,3-dimethoxy-phenyl]-1-[1-(4-methyl-phenyl)-3,4-dihydro-1H-isoquinolin-2-yl]-propenone]
IC50 [1]: 330 nM | IC50 [2]: 0.2 nM | IC50 [3]: 4.8 nM

COc1cc(Cc2cnc(N)nc2N)cc(/C=C/C(=O)N2CCc3ccccc3C2c2ccc(O)cc2)c1OC (racemic) [Example 21, (E)-(RS)-3-[5-(2,4-Diamino-pyrimidin-5-ylmethyl)-2,3-dimethoxy-phenyl]-1-[1-(4-hydroxy-phenyl)-3,4-dihydro-1H-isoquinolin-2-yl]-propenone]
IC50 [1]: 380 nM | IC50 [2]: 5.5 nM | IC50 [3]: 13 nM

COc1cc(Cc2cnc(N)nc2N)cc(/C=C/C(=O)N2CCc3ccccc3C2c2ccc(C#N)cc2)c1OC (racemic) [Example 23]
IC50 [1]: 10000 nM | IC50 [2]: 0.5 nM | IC50 [3]: 0.9 nM

COc1cc(Cc2cnc(N)nc2N)cc(/C=C/C(=O)N2CCc3ccccc3C2c2cccs2)c1OC (racemic) [Example 27, (E)-(RS)-3-[5-(2,4-Diamino-pyrimidin-5-ylmethyl)-2,3-dimethoxy-phenyl]-1-(1-thiophen-2-yl-3,4-dihydro-1H-isoquinolin-2-yl)-propenone]
IC50 [1]: 3800 nM | IC50 [2]: 1.6 nM | IC50 [3]: 1.8 nM

COc1cc(Cc2cnc(N)nc2N)cc(/C=C/C(=O)N2CCc3ccccc3C2c2ccc(C)nc2)c1OC (racemic) [Example 32, (E)-(RS)-3-[5-(2,4-Diamino-pyrimidin-5-ylmethyl)-2,3-dimethoxy-phenyl]-1-[1-(6-methyl-pyridin-3-yl)-3,4-dihydro-1H-isoquinolin-2-yl]-propenone]
IC50 [1]: 10000 nM | IC50 [2]: 1.8 nM | IC50 [3]: 1.3 nM

COc1cc(Cc2cnc(N)nc2N)cc(/C=C/C(=O)N2CCc3ccccc3C2c2ccc(Cl)cn2)c1OC (racemic) [Example 34, (E)-(RS)-1-[1-(5-Chloro-pyridin-2-yl)-3,4-dihydro-1H-isoquinolin-2-yl]-3-[5-(2,4-diamino-pyrimidin-5-ylmethyl)-2,3-dimethoxy-phenyl]-propenone]
IC50 [1]: 10000 nM | IC50 [2]: 2.4 nM | IC50 [3]: 1.7 nM

COc1cc(Cc2cnc(N)nc2N)cc(/C=C/C(=O)N2CCc3ccccc3C2c2ccc(Cl)nc2)c1OC (racemic) [Example 36, (E)-(RS)-1-[1-(6-Chloro-pyridin-3-yl)-3,4-dihydro-1H-isoquinolin-2-yl]-3-[5-(2,4-diamino-pyrimidin-5-ylmethyl)-2,3-dimethoxy-phenyl]-propenone]
IC50 [1]: 6200 nM | IC50 [2]: 0.8 nM | IC50 [3]: 3 nM

COc1cc(Cc2cnc(N)nc2N)cc(/C=C/C(=O)N2CCc3ccccc3C2c2ccc(C(N)=O)nc2)c1OC (racemic) [Example 39, (E)-(R,S)-5-[2-[3-[5-(2,4-Diamino-pyrimidin-5-ylmethyl)-2,3-dimethoxy-phenyl]-acryloyl]-1,2,3,4-tetrahydro-isoquinolin-1-yl]-pyridine-2-carboxamide]
IC50 [1]: 30000 nM | IC50 [2]: 1.2 nM | IC50 [3]: 1.8 nM

COc1cc(Cc2cnc(N)nc2N)cc(/C=C/C(=O)N2CCc3ccccc3C2c2ccc(S(C)(=O)=O)cc2)c1OC (racemic) [Example 40, (E)-(R,S)-3-[5-(2,4-Diamino-pyrimidin-5-ylmethyl)-2,3-dimethoxy-phenyl]-1-[1-(4-methanesulphonyl-phenyl)-3,4-dihydro-1H-isoquinolin-2-yl]-propenone]
IC50 [1]: 550 nM | IC50 [2]: 0.7 nM | IC50 [3]: 1.2 nM

COc1cc(Cc2cnc(N)nc2N)cc(/C=C/C(=O)N2CCc3ccccc3[C@@H]2c2ccccn2)c1OC [Example 1, (E)-(R)-3-[5-(2,4-diamino-pyrimidin-5-ylmethyl)-2,3-dimethoxy-phenyl]-1-(1-pyridin-2-yl-3,4-dihydro-1H-isoquinolin-2-yl)-propenone]
IC50 [1]: 8000 nM | IC50 [2]: 5 nM | IC50 [3]: 8 nM
